{"source": "patent US20140186302A1", "about": "“Nutritional Formulations and Method for Treating Diseases” (priority 2012, published 2014)", "key": {"retinal lesions [1]": {"test_system": "retinal lesions", "test": "Retinal lesion size by retinal photography in subjects having vitreomacular traction (VMT)", "format": "in vivo, human", "settings": "Case 1, lutein (10 mg) every other day, four months"}, "retinal lesions [2]": {"test_system": "retinal lesions", "test": "Retinal lesion size by retinal photography in subjects having vitreomacular traction (VMT)", "format": "in vivo, human", "excerpt": "As used herein, the terms “units of diameter” and units made in reference to lesion size or diameter refer to units of diameter of the posterior pole of an eye, which measures ten units in diameter between the vascular arcades. A lesion can be larger than 19 units.\nDiagnosis of vitreomacular traction (VMT): VMT can be symptomatic or asymptomatic. Complaints of reduced or distorted vision may or may not be reported by the subject. Measurement of visual acuity (VA) may or may not be normal or reduced in one or both eyes. Measurement for distortion on an Amsler grid may or may not show distortion in one or both eyes. Retinal photography may show signs of VMT in the original color composite image (e.g., upper left photo in four panel photo of FIG. 1A). Further analysis of the choroid (e.g., upper right photo in four panel photo of FIG. 1A), the retina (e.g., lower left photo in four panel photo of FIG. 1A), and the retinal nerve fibre layer (RNFL) (e.g., lower right photo in four panel photo of FIG. 1A), may reveal puckering, fibrosis, lamellar splitting, partial lamellar holes, pseudo macular holes, bulging and/or edema in the choroid, retinal and/or RNFL images. Further analysis with “3-D” images of the choroid, retina and RNFL layers may show elevations diagnostic of VMT, such as, for example, the presence, severity and/or size of puckering, partial lamellar holes, macular holes, bulging or edema. Further, “3-D” images can be useful for determining which layers of the eye tissue are affected by VMT.\nOcular imaging: retinal photographs were taken using a Canon CR-1 Digital Retinal Camera and analyzed using EyeScape Digital Imaging Software, version 7.5.5.\nThe settings used for taking retinal photographs were such that optimal contrast and brightness for each subject was achieved. Most retinal photographs were taken with a dilated pupil. Some subjects have naturally very large pupils. In these cases, pupil dilation may not have been required to obtain sufficient images. The Canon CR-1 has a setting for small pupils that was used as required.\nData were collected from 40 subjects having symptomatic VMT over a period of 4.5 years.\nSubjects were treated daily with lutein and zeaxanthin as described in table 1."}, "[3]": {"settings": "Lutein 5 mg, zeaxanthin 0 mg, case 31"}, "[4]": {"settings": "Lutein 18 mg, zeaxanthin 0 mg, case 13"}, "[5]": {"settings": "Lutein 20 mg, zeaxanthin 0 mg, case 2"}, "[6]": {"settings": "Lutein 0 mg, zeaxanthin 1 mg, case 27"}}, "data": [{"compound": "CC1=C[C@H](O)CC(C)(C)[C@H]1/C=C/C(C)=C/C=C/C(C)=C/C=C/C=C(C)/C=C/C=C(C)/C=C/C1=C(C)C[C@@H](O)CC1(C)C", "note": "[lutein]", "values": [{"measurement": "ERM OD size after treatment", "setting": "retinal lesions [1]; from 1.5 units", "result": 0.5, "unit": "units"}, {"measurement": "OS macular pucker size after treatment", "setting": "retinal lesions [1]; from 6.5 units", "result": 5.0, "unit": "units"}, {"measurement": "OD lesion (units)", "setting": "retinal lesions [2]; [3]", "result": 0, "unit": "units"}, {"measurement": "OS lesion (units)", "setting": "retinal lesions [2]; [3]", "result": 0.5, "unit": "units"}, {"measurement": "OD lesion (units)", "setting": "retinal lesions [2]; [4]", "result": 0, "unit": "units"}, {"measurement": "OS lesion (units)", "setting": "retinal lesions [2]; [4]", "result": 0, "unit": "units"}, {"measurement": "OD lesion (units)", "setting": "retinal lesions [2]; [5]", "result": 0, "unit": "units"}, {"measurement": "OS lesion (units)", "setting": "retinal lesions [2]; [5]", "result": 3, "unit": "units"}]}, {"compound": "CC1=C(/C=C/C(C)=C/C=C/C(C)=C/C=C/C=C(C)/C=C/C=C(C)/C=C/C2=C(C)C[C@@H](O)CC2(C)C)C(C)(C)C[C@H](O)C1", "note": "[zeaxanthin]", "values": [{"measurement": "OD lesion (units)", "setting": "retinal lesions [2]; [6]", "result": 0.5, "unit": "units"}, {"measurement": "OS lesion (units)", "setting": "retinal lesions [2]; [6]", "result": 0.5, "unit": "units"}]}]}
